Assay results taken from patent US9434695B2, “Nitrogenous heterocyclic derivatives and their application in drugs” (SUNSHINE LAKE PHARMA CO., LTD., priority 2012, dated 2016).

Experiments:
BHK-21 cells = assay: inhibition of BHK-21 cell proliferation (CCK-8, optical density at 450 nm); type: cell-based; settings: for IC50: Mesocricetus auratus, inhibition ratio of cell proliferation, 48 hours after dosing, CCK-8; for The ratio with PFD (multiple): ratio of Pirfenidone IC50 from the compound IC50, the bigger the multiple, the better the vitro inhibitory activity, 48 hours
Method: Taking BHK-21 cells which in exponential growth phase, collecting and counting the cells which had digestive transfer culture after fusion growth 85-95%, adjusting the cell density to 2×10^4 cells per milliliter, seeding the cells into 96-well plates, 100 μl/well, the cells were incubated in a 5% CO2 incubator at 37° C.
The upper clear liquid of the 96-well plates was removed after the cells adhering to the wall 24 hours. The above compounds were confected into solutions of different concentration and the solutions were added to the wells, 100 μl/well. Each concentration solution in 3 replicates, the cells were subcultured 48 hours after dosing.
3. Testing the Optical Density
10 μl of CCK-8 solution was added to each well 48 hours after dosing, and incubated for 2 hours. The optical density (A) of each well was determined by a microplate reader at 450 nm wavelength. Calculating the inhibition ratio of cell proliferation of each compound is based on A and the inhibition ratio of cell proliferation (inhibition ratio, IR)=(1−value of experimental group (Ai)/value of control group (Ao))×100% and the IC50 of each compound at 48 hours was calculated by data processing software.

ECM gathering = settings: animal experiments of renal fibrosis, pulmonary fibrosis; clinical trials of patients with specific lung fibrosis; cited from earlier work

Row | Structure (SMILES) | IC50 (BHK-21 cells) | The ratio with PFD (multiple) (BHK-21 cells) | effect on ECM gathering (ECM gathering)
1 | Cc1cc(=O)n(-c2ccc(N3CCOCC3)c(F)c2)c(COc2cc(F)cc(F)c2)n1 [Example 50, 2-((3,5-difluorophenoxy)methyl)-3-(3-fluoro-4-morpholinophenyl)-6-methylpyrimidin-4(3H)-one] | 60 µM | 42.93 multiple | 
2 | Cc1cc(=O)n(-c2ccc(N3CCOCC3)c(F)c2)c(CSc2cccc(F)c2)n1 [Example 51, 3-(3-fluoro-4-morpholinophenyl)-2-(((3-fluorophenyl)thio)methyl)-6-methylpyrimidin-4(3H)-one] | 100 µM | 25.14 multiple | 
3 | Cc1cc(=O)n(-c2ccc(N3CCOCC3)c(F)c2)c(CCc2cccc(F)c2)n1 [Example 52, 3-(3-fluoro-4-morpholinophenyl)-2-(3-fluorophenethyl)-6-methylpyrimidin-4(3H)-one] | 180 µM | 14.15 multiple | 
4 | Cc1cc(=O)n(-c2ccc(N3CCOCC3)c(F)c2)c(CCCOc2cccc(F)c2)n1 [Example 53, 3-(3-fluoro-4-morpholinophenyl)-2-(3-(3-fluorophenoxy)propyl)-6-methylpyrimidin-4(3H)-one] | 500 µM | 15.49 multiple | 
5 | Cc1cc(=O)n(-c2ccc(N3CCN(C)CC3)c(F)c2)c(COc2cccc(F)c2)n1 [Example 55, 3-(3-fluoro-4-(4-methylpiperazin-1-yl)phenyl)-2-((3-fluorophenoxy)methyl)-6-methylpyrimidin-4(3H)-one] | 50 µM | 46.92 multiple | 
6 | Cc1cc(=O)n(-c2ccc(OCCN3CCOCC3)c(F)c2)c(COc2cccc(F)c2)n1 [Example 56, 3-(3-fluoro-4-(2-morpholinoethoxy)phenyl)-2-((3-fluorophenoxy)methyl)-6-methylpyrimidin-4(3H)-one] | 100 µM | 54.14 multiple | 
7 | Cc1cc(=O)n(-c2ccc(NCCN3CCOCC3)c(F)c2)c(COc2cccc(F)c2)n1 [Example 57, 3-(3-fluoro-4-((2-morpholinoethyl)amino)phenyl)-2-((3-fluorophenoxy)methyl)-6-methylpyrimidin-4(3H)-one] | 100 µM | 84.22 multiple | 
8 | Cc1cc(=O)n(-c2ccc(N3CCOCC3)c(F)c2)c(COC2CCCCC2)n1 [Example 58, 2-((cyclohexyloxy)methyl)-3-(3-fluoro-4-morpholinophenyl)-6-methylpyrimidin-4(3H)-one] | 290 µM | 26.37 multiple | 
9 | Cc1cc(=O)n(-c2ccc(N3CCOCC3)c(F)c2)c(COc2cccnc2)n1 [Example 59, 3-(3-fluoro-4-morpholinophenyl)-6-methyl-2-((pyridin-3-yloxy)methyl)pyrimidin-4(3H)-one] | 300 µM | 25.50 multiple | 
10 | Cc1cc(=O)n(-c2ccc(N3CCOCC3)c(F)c2)c(COc2cncc(F)c2)n1 [Example 60, 3-(3-fluoro-4-morpholinophenyl)-2-(((5-fluoropyridin-3-yl)oxy)methyl)-6-methylpyrimidin-4(3H)-one] | 540 µM | 13.72 multiple | 
11 | CCCCCCN(CCCCCC)c1ccc(-n2c(COc3cccc(F)c3)nc(C)cc2=O)cc1F [Example 62, 3-(4-(dihexylamino)-3-fluorophenyl)-2-((3-fluorophenoxy)methyl)-6-methylpyrimidin-4(3H)-one] | 310 µM | 24.68 multiple | 
12 | Cc1cc(=O)n(-c2ccc(N3CCOCC3)c(Cl)c2)c(COc2cccc(F)c2)n1 [Example 63, 3-(3-chloro-4-morpholinophenyl)-2-((3-fluorophenoxy)methyl)-6-methylpyrimidin-4(3H)-one] | 40 µM | 47.43 multiple | 
13 | Cc1cc(=O)n(-c2ccc(N3CCOCC3)c(Cl)c2)c(COc2cccc(Cl)c2)n1 [Example 64, 3-(3-chloro-4-morpholinophenyl)-2-((3-chlorophenoxy)methyl)-6-methylpyrimidin-4(3H)-one] | 190 µM | 10.69 multiple | 
14 | Cc1cc(=O)n(-c2ccc(N3CCOCC3)c(Cl)c2)c(COc2cccc(C#N)c2)n1 [Example 65, 3-((1-(3-chloro-4-morpholinophenyl)-4-methyl-6-oxo-1,6-dihydropyrimidin-2-yl)methoxy)benzonitrile] | 20 µM | 119.61 multiple | 
15 | Cc1cc(=O)n(-c2ccc(N3CCOCC3=O)c(F)c2)c(COc2cccc(F)c2)n1 [Example 66, 4-(2-fluoro-4-(2-((3-fluorophenoxy)methyl)-4-methyl-6-oxopyrimidin-1(6H)-yl)phenyl) morpholin-3-one] | 230 µM | 14.95 multiple | 
16 | Cc1cc(=O)n(-c2ccc(N3CCOCC3)c(Cl)c2)c(COc2ccc(Cl)c3ccccc23)n1 [Example 67] | 140 µM | 25.09 multiple | 
17 | C#Cc1cccc(OCc2nc(C)cc(=O)n2-c2ccc(N3CCOCC3)c(F)c2)c1 [Example 68] | 110 µM | 26.80 multiple | 
18 | Cc1cc(=O)n(-c2ccc(N3CCOCC3)c(F)c2)c(C(F)(F)Oc2cccc(F)c2)n1 [Example 69, 2-(difluoro(3-fluorophenoxy)methyl)-3-(3-fluoro-4-morpholinophenyl)-6-methylpyrimidin-4(3H)-one] | 90 µM | 42.03 multiple | 
19 | COc1cccc(OCc2nc(C)cc(=O)n2-c2ccc(N3CCOCC3)c(F)c2)c1 [Example 71, 3-(3-fluoro-4-morpholinophenyl)-2-((3-methoxyphenoxy)methyl)-6-methylpyrimidin-4(3H)-one] | 80 µM | 48.76 multiple | 
20 | Cc1ccc(=O)n(-c2ccccc2)c1 [pirfenidone, 5-methyl-1-phenyl-2-(1H)-pyridone] |  |  | could prevent ECM gathering, or even reverse it
